Bridge positions count the residues as written; N and C are the ends. Peptide text beside a SMILES is read from it.
Key:
CBP BRD = CBP BRD (Homo sapiens, UniProt Q92793); experiment: competition fluorescent polarization; assay type: binding; conditions: FP competition assay; relative to linear p53-K382ac
[1] = system: p53-induced p21 activation; experiment: p53-based p21-luciferase assay; assay type: cell-based, human; conditions: HCT116 cells, doxorubicin treatment
[2] = system: endogenous p53 and p21 proteins in HCT116 cells; experiment: western blot of endogenous p53 and p21 after doxorubicin; assay type: cell-based, human; conditions: peptide 12 hours, then doxorubicin 300 ng/ml for 24 hrs

Sequence of CBP BRD (Q92793 1085-1192 limits assumed): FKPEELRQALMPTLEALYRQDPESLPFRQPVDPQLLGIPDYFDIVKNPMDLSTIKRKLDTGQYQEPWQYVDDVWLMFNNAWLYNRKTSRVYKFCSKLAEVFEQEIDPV

SMILES: CC(=O)NCCCC[C@@H]1NC(=O)[C@H](CCCCN)NC(=O)[C@H](Cc2c[nH]cn2)NC(=O)[C@@H](N)CSSC[C@@H](C(=O)N[C@@H](Cc2ccccc2)C(=O)N[C@@H](CCCCN)C(N)=O)NC(=O)[C@H](CC(C)C)NC1=O [compound 1] (H-CHKK(Ac)LCFK-NH2; disulfide 1-6; N-terminus and C-terminus assumed)
- fold increase in binding affinity over linear p53-K382ac peptide (CBP BRD): 9 fold

SMILES: CC(=O)NCCCC[C@@H]1NC(=O)[C@H](CCCCN)NC(=O)[C@H](Cc2c[nH]c3ccccc23)NC(=O)[C@@H](N)CSSC[C@@H](C(=O)N[C@@H](Cc2ccccc2)C(=O)N[C@@H](CCCCN)C(N)=O)NC(=O)[C@H](CC(C)C)NC1=O [compound 4] (H-CWKK(Ac)LCFK-NH2; disulfide 1-6; N-terminus and C-terminus assumed)
- inhibition of p53-induced p21 luciferase activation [1]: dose-dependent inhibition
- fold increase in binding affinity over linear p53-K382ac peptide (CBP BRD): 24 fold
- protein level of endogenous p53 and p21 [2]: effectively reduced the protein level of endogenous p53 and p21

— publication PMC3047509 (Journal of the American Chemical Society, 2011)
